Each structure is given as a SMILES string. pIC50: −log10 of the molar value.

In this assay the target is human lung tryptase. In words: β-Tryptase In-Vitro Enzyme Assay. It is filed as biochemical. Conditions: human lung tryptase 1 nM, substrate H-D-HHT-Ala-Arg-pNa 500 μM, pH 7.4, room temperature. Here is the method:
The β-tryptase assay was conducted with human lung tryptase (Cortex Biochem #CP3033) in an aqueous buffer (10 mM Tris, 10 mM Hepes, 150 mM NaCl, 0.1% PEG 8000, pH 7.4) using the chromogenic substrate H-D-HHT-Ala-Arg-pNa. […] Percent inhibition was calculated by comparing the initial reaction velocity of samples without inhibitor to those with inhibitor. The initial reaction velocities were analyzed using Microsoft Excel.
By pIC50 is commonly meant the negative decadic logarithm of the IC50, by convention in mol/L. A low value points to a large IC50. Compound `NCc1ccc2c(c1)C1(CCN(C(=O)Cc3ccc4c(c3)OCO4)CC1)CO2` [Cpd 100, 1-benzodioxol-5-ylmethylcarbonyl-5′-aminomethyl-spiro[piperidine-4,3′-(2H)-benzo[b]furan]] showed a pIC50 of 6.17. Next, `NCc1ccc2c(c1)C1(CCN(C(=O)c3cccc4c3C(=O)c3ccccc3-4)CC1)CO2` [Cpd 270, 1-(9-oxo-fluoren-1-yl)carbonyl-5′-aminomethyl-spiro[piperidine-4,3′-(2H)-benzo[b]furan]]: 5.19. In the case of `NCc1ccc2c(c1)C1(CCN(C(=O)c3cc4ccccc4oc3=O)CC1)CO2` [Cpd 196, 1-(2-oxo-(2H)-chromen-3-yl)carbonyl-5′-aminomethyl-spiro[piperidine-4,3′-(2H)-benzo[b]furan]], the negative-log IC50 (pIC50) was 6.17. In turn, `NCc1ccc2c(c1)C1(CCN(C(=O)C3CC(=O)c4ccccc43)CC1)CO2` (stereo not shown) [Cpd 287, 1-(3-oxo-indan-1-yl)carbonyl-5′-aminomethyl-spiro[piperidine-4,3′-(2H)-benzo[b]furan]] had a pIC50 of 5.37. The compound `NCc1ccc2c(c1)C1(CCN(C(=O)c3ccc(C#Cc4ccccc4)o3)CC1)CN2C(=O)Cc1nnn[nH]1` [Cpd 330, 1-(5-phenylethynyl-furan-2-yl)carbonyl-1′-(2-1H-tetrazol-5-yl-1-oxo-ethyl)-5′-aminomethyl-spiro[piperidine-4,3′-(2H)-indole]] gave a pIC50 of 7.60. Turning to `Cc1ccsc1/C=C/C(=O)N1CCC2(CC1)COc1ccc(CN)cc12` [Cpd 356, (E)-1-(3-methyl-thien-2-ylethenyl)carbonyl-5′-aminomethyl-spiro[piperidine-4,3′-(2H)-benzo[b]furan]], the pIC50 was 6.74. Under `NCc1ccc2c(c1)C1(CCN(C(=O)c3ccc(S(N)(=O)=O)cc3)CC1)CO2` [Cpd 11, 1-(4-aminosulfonyl-phenyl)carbonyl-5′-aminomethyl-spiro[piperidine-4,3′-(2H)-benzo[b]furan]] stands 5.33; under `NCc1ccc2c(c1)C1(CCN(C(=O)c3cccc(Br)c3)CC1)CO2` [Cpd 29, 1-(3-bromo-phenyl)carbonyl-5′-aminomethyl-spiro[piperidine-4,3′-(2H)-benzo[b]furan]], 6.89; under `NCc1cc2c(cc1F)OCC21CCN(C(=O)c2ccc(Cl)c(Cl)c2)CC1` [Cpd 308, 1-(3,4-dichlorophenyl)carbonyl-5′-aminomethyl-6′-fluoro-spiro[piperidine-4,3′-(2H)-benzo[b]furan]], 5.14. In turn, `COc1ccc(C(=O)N2CCC3(CC2)COc2ccc(CN)cc23)cc1Cl` [Cpd 28, 1-(3-chloro-4-methoxy-phenyl)carbonyl-5′-aminomethyl-spiro[piperidine-4,3′-(2H)-benzo[b]furan]] had a pIC50 of 6.92.

In turn, `NCc1ccc2c(c1)C1(CCN(C(=O)/C=C/c3cccnc3)CC1)CO2` [Cpd 253, (E)-1-(pyridin-3-ylethenyl)carbonyl-5′-aminomethyl-spiro[piperidine-4,3′-(2H)-benzo[b]furan]] gave a pIC50 of 5.62. Under `CSc1ccc(C(=O)N2CCC3(CC2)COc2ccc(CN)cc23)cc1` [Cpd 45, 1-(4-methylthio-phenyl)carbonyl-5′-aminomethyl-spiro[piperidine-4,3′-(2H)-benzo[b]furan]] stands 6.66. Regarding `NCc1ccc2c(c1)C1(CCN(C(=O)c3cccc(NC(=O)Cc4cccs4)c3)CC1)CO2` [Cpd 19, 1-(3-thien-2-ylmethylcarbonylamino-phenyl)carbonyl-5′-aminomethyl-spiro[piperidine-4,3′-(2H)-benzo[b]furan]], the pIC50 is 6.25. Compound `NCc1ccc2c(c1)C1(CCN(C(=O)/C=C/c3ccoc3)CC1)CO2` [Cpd 251, (E)-1-(furan-3-ylethenyl)carbonyl-5′-aminomethyl-spiro[piperidine-4,3′-(2H)-benzo[b]furan]] gave a pIC50 of 5.82.

Compound `CNNC1CC(S(=O)(=O)N2CC3(CCN(C(=O)c4ccc(C#Cc5ccccc5)o4)CC3)c3cc(CN)ccc32)CS1(=O)=O` (stereo not shown) [Cpd 338, 1-(5-phenylethynyl-furan-2-yl)carbonyl-1′-[5-(N′-methyl-hydrazino)-1,1-dioxo-3,4,5-trihydro-(2H)-thien-3-yl]sulfonyl-5′-aminomethyl-spiro[piperidine-4,3′-(2H)-indole]] showed a pIC50 of 7.14.

As to `CC(=O)N/C(=C\c1ccccc1)C(=O)N1CCC2(CC1)COc1ccc(CN)cc12` [Cpd 205, (Z)-1-(1-methylcarbonylamino-2-phenylethenyl)carbonyl-5′-aminomethyl-spiro[piperidine-4,3′-(2H)-benzo[b]furan]], the pIC50 is 6.13. Compound `COc1ccc(CC(=O)N2CCC3(CC2)COc2ccc(CN)cc23)cc1C` [Cpd 102, 1-(3-methyl-4-methoxy-benzyl)carbonyl-5′-aminomethyl-spiro[piperidine-4,3′-(2H)-benzo[b]furan]] gave a negative logarithm of the IC50 (pIC50) of 6.22. `NCc1ccc2c(c1)C1(CCN(C(=O)c3cc4c(s3)CCCCC4)CC1)CO2` [Cpd 257, 1-(5,6,7,8-tetrahydro-4H-cyclohepta[b]thien-2-yl)carbonyl-5′-aminomethyl-spiro[piperidine-4,3′-(2H)-benzo[b]furan]]: the pIC50 is 6.36. The pIC50 values of the last two compounds are within 0.2 log units of each other. Turning to `COc1cccc(CC(=O)N2CCC3(CC2)COc2ccc(CN)cc23)c1` [Cpd 99, 1-(3-methoxy-benzyl)carbonyl-5′-aminomethyl-spiro[piperidine-4,3′-(2H)-benzo[b]furan]], the pIC50 is 6.24.

For the compound `NCc1ccc2c(c1)C1(CCN(C(=O)/C(=C/c3ccccc3)c3ccccc3)CC1)CO2` [Cpd 190, (E)-1-(1-phenyl-2-phenylethenyl)carbonyl-5′-aminomethyl-spiro[piperidine-4,3′-(2H)-benzo[b]furan]], the pIC50 was 6.23. This pIC50 and that of the compound before are within 0.2 log units of each other.

Regarding `NCc1ccc2c(c1)C1(CCN(C(=O)/C=C/c3ccc(-c4ccccc4)cc3)CC1)CO2` [Cpd 117, (E)-1-(4-phenyl-phenylethenyl)carbonyl-5′-aminomethyl-spiro[piperidine-4,3′-(2H)-benzo[b]furan]], the pIC50 is 6.22.

Compound `NCc1ccc2c(c1)C1(CCN(C(=O)c3ccc(Cn4cnc5ccccc54)cc3)CC1)CO2` [Cpd 10, 1-(4-benzoimidazol-1-ylmethyl-phenyl)carbonyl-5′-aminomethyl-spiro[piperidine-4,3′-(2H)-benzo[b]furan]] gave a pIC50 of 5.52. Take `NCc1ccc2c(c1)C1(CCN(C(=O)Cc3cccc(Oc4ccccc4F)c3)CC1)CO2` [Cpd 210, 1-[3-(2-fluoro-phenoxy)-benzyl]carbonyl-5′-aminomethyl-spiro[piperidine-4,3′-(2H)-benzo[b]furan]]: the pIC50 was 7.59.

For `NCc1ccc2c(c1)C1(CCN(C(=O)c3ccc4cc(Br)ccc4c3)CC1)CO2` [Cpd 126, 1-(6-bromo-naphthalen-2-yl)carbonyl-5′-aminomethyl-spiro[piperidine-4,3′-(2H)-benzo[b]furan]], the negative logarithm of the IC50 (pIC50) was 6.82. In the case of `CSc1cccc(C(=O)N2CCC3(CC2)COc2ccc(CN)cc23)c1` [Cpd 57, 1-(3-methylthio-phenyl)carbonyl-5′-aminomethyl-spiro[piperidine-4,3′-(2H)-benzo[b]furan]], the pIC50 is 6.74.

For `NCc1ccc2c(c1)C1(CCN(C(=O)c3ccc(CSc4ccc(C(F)(F)F)cn4)o3)CC1)CO2` [Cpd 151, 1-[5-(5-trifluoromethyl-pyridin-2-ylthiomethyl)-furan-2-yl]carbonyl-5′-aminomethyl-spiro[piperidine-4,3′-(2H)-benzo[b]furan]], the pIC50 is 6.74. As for `NCc1ccc2c(c1)C1(CCN(C(=O)c3ccc4c(c3)OCO4)CC1)CO2` [Cpd 68, 1-benzodioxol-5-ylcarbonyl-5′-aminomethyl-spiro[piperidine-4,3′-(2H)-benzo[b]furan]], the pIC50 is 6.72. Under `CCn1cc(C(=O)N2CCC3(CC2)COc2ccc(CN)cc23)c2cccc(C)c21` [Cpd 250, 1-(1-ethyl-7-methyl-indol-3-yl)carbonyl-5′-aminomethyl-spiro[piperidine-4,3′-(2H)-benzo[b]furan]] stands 6.36; under `Cc1ccc(C)c(OCc2ccc(C(=O)N3CCC4(CC3)COc3ccc(CN)cc34)o2)c1` [Cpd 174, 1-[5-(2,5-dimethyl-phenoxymethyl)-furan-2-yl]carbonyl-5′-aminomethyl-spiro[piperidine-4,3′-(2H)-benzo[b]furan]], 7.77; under `COc1ccc(CC(=O)N2CCC3(CC2)COc2ccc(CN)cc23)cc1` [Cpd 94, 1-(4-methoxy-benzyl)carbonyl-5′-aminomethyl-spiro[piperidine-4,3′-(2H)-benzo[b]furan]], 6.62. Regarding `NCc1ccc2c(c1)C1(CCN(C(=O)c3ccc(Cc4ccccc4)cc3)CC1)CO2` [Cpd 75, 1-(4-benzyl-phenyl)carbonyl-5′-aminomethyl-spiro[piperidine-4,3′-(2H)-benzo[b]furan]], the pIC50 is 6.33. `NCc1ccc2c(c1)C1(CCN(C(=O)c3ccc(C#Cc4ccccc4)o3)CC1)CN2CCP(=O)(O)O` [Cpd 326, 1-(5-phenylethynyl-furan-2-yl)carbonyl-5′-aminomethyl-spiro[piperidine-4,3′-(2H)-indole]-1′-(2-ethyl-phosphonic acid)] gave a pIC50 of 6.33. Compound `CC(C)Sc1sc(C(=O)N2CCC3(CC2)COc2ccc(CN)cc23)c2c1C(=O)CC(C)(C)C2` [Cpd 225, 1-(3-isopropylthio-4-oxo-6,6-dimethyl-6,7-dihydro-5H-benzo[c]thien-1-yl)carbonyl-5′-aminomethyl-spiro[piperidine-4,3′-(2H)-benzo[b]furan]] gave a pIC50 of 7.33. Next, `C[SH]1C=C(C(F)(F)F)C2=C1NN(C(=O)N1CCC3(CC1)COc1ccc(CN)cc13)C2` (stereo not shown) [Cpd 276, 1-(4-trifluoromethyl-6-methyl-1H-thieno[2,3-c]pyrazol-2-yl)carbonyl-5′-aminomethyl-spiro[piperidine-4,3′-(2H)-benzo[b]furan]]: 6.82.

The values are drawn from patent US8158792B2, “Spiropiperidines for use as tryptase inhibitors” (Janssen Pharmaceutica N.V., priority 2007, dated 2012).
